Key:
[1] = system: RBL-2H3; test: Degranulation reaction of basocyte (β-hexosaminidase release); format: cell-based, rat; conditions: for concentration at which inhibiting activity on degranulation was exerted: summary of Table 3
Procedure: Degranulation rate (%) and inhibition rate of degranulation (%) were calculated based on the measurements of β-hexosaminidase activity in the granules released from the cells by degranulation reaction.
Rat cancer cells from basocyte RBL-2H3(catalognumber“JCRB0023”, commercialized by Health Science Research Resources Bank of Japan Health Sciences Foundation), known to be degranulated by cross-linkage of IgE, were used after cultured in a MEM medium (commercialized by Nissui Pharmaceutical Co., Ltd.) supplemented with 10% (v/v) FCS.
The above cells were recovered from a flask by conventional trypsin-EDTA treatment, then suspended in a MEM medium supplemented with 10% (v/v) FCS to give a cell concentration of 5×10^5 cells/ml. The suspension was inoculated to a 24-well microplate in a volume of 400 μl per well, cultured in a 5% (v/v) carbon dioxide incubator for 3 to 5 hours, then admixed with 0.625 μg/ml of anti dinitrophenol (hereinafter abbreviated as “DNP”) mouse IgE (commercialized by Sigma-Aldrich, Inc., diluted by MEM medium supplied with 10% (v/v) FCS) in a volume of 100 μl per well to sensitize the cells by IgE (a final concentration of the anti DNP-IgE was 0.125 μg/ml). After the cells were cultured in the 5% (v/v) carbon dioxide incubator overnight, the supernatant was removed by suction, and then each well was washed twice with Siraganian buffer (119 mM NaCl, 5 mM KCl, 0.4 mM MgCl2, 25 mM piperazine-N,N″-bis(2-ethane sulfonic acid) (PIPES), 40 mM NaOH, pH 7.2) by 500 μl per well. After admixed with Siraganian buffer containing 0.1% bovine serum albumin (BSA), 5.6 mM glucose and 1 mM CaCl2 (hereinafter described as “BSA-containing Siraganian buffer) in a volume of 160 μl per well, the microplate was warmed at 37° C. for 15 minutes. As test samples, 2-aminophenoxazine-3-one (questiomycin A), arbutin having skin-whitening effect and oxatomide used as therapeutic agents for allergic diseases (positive control) were diluted with BSA-containing Siraganian buffer to give the concentrations shown in Table 3, any of the test samples was added by 20 μl per well, then the microplate was warmed at 37° C. for 15 minutes (wells with the test samples). The well with any of the test samples was admixed with DNP-albumin (commercialized by Sigma-Aldrich, Inc.) diluted with BSA-containing Siraganian buffer to give a concentration of 50 μg/ml by 20 μl per well, and warmed at 37° C. for 15 minutes. After the 24-well microplate was cooled on ice for 10 minutes, the supernatant was collected and 100 μl thereof was injected into a 96-well microplate to measure the β-hexosaminidase activity in the supernatant. As negative control, BL-2H3 cells were cultured and treated in the same way as the wells admixed with the test samples except for that FCS-supplemented MEM medium containing no antibody was used, and the β-hexosaminidase activity in the supernatant was measured (the well without IgE sensitization). After the supernatants were removed from some of the wells without IgE sensitization, the wells were washed twice with BSA-containing Siraganian buffer and admixed with BSA-containing Siraganian buffer by 200 μl per well. The cells were broken by twice repeating freezing at −80° C. and thawing, whole medium containing the broken cells was collected, centrifuged at 1,500 rpm for 10 minutes, and then 100 μl of the supernatant was injected into a 96-well microplate to measure the β-hexosaminidase activity of the whole granule extract.
Each well of the 96-well microplate injected with any of the supernatant from the wells with the test samples, the supernatant from the wells without IgE sensitization or the whole granule extract described above was admixed with 50 μl of citrate buffer (pH 4.5) containing 1 mM 4-nitrophenyl-N-acetyl-β-glucosaminide (PNAG) as substrate, kept at 37° C. for 1 hour, and then the reaction was stopped by adding 50 μl of 0.1 M sodium carbonate (pH 10.5). […]

[2] = system: Mouse melanoma cell line B16; test: Melanin synthesis in B16 cells; format: cell-based; conditions: for Amount of melanin (%): 5 days, per mg protein versus control; for inhibiting effect on melanin production in combinational use: used with 2-aminophenoxsazine-3-one
Procedure: (§1) As control, a system with no test sample was provided. […] The amount of protein was measured by conventional Bradfordmethod and the amount of melanin per 1 mg of protein was calculated. The amount of melanin (%) was calculated according to Formula 4, and the living cell rate (%) was calculated according to Formula 5.
As control, a system with no test sample was provided. […] The amount of protein was measured by conventional Bradford method and the amount of melanin per 1 mg of protein was calculated. The amount of melanin (%) was calculated according to Formula 4.

[3] = system: RAW264.7 cells; test: NO production by macrophage RAW264.7, Griess method; format: cell-based, mouse; conditions: LPS + IFN-γ, 2 days, relative level versus control
Excerpt: As macrophage cells, RAW264.7 cell strain from mouse or macrophage cells obtained from laboratory animals such as mouse can be used. The amount of produced NO can be measured by conventional Griess method. […] RAW264.7 cells, a murine macrophage cell strain, were suspended in PRMI1640 medium supplied with 10% (v/v) fetal calf serum (hereinafter abbreviated as “FCS”) to give a cell suspension with a cell concentration of 1×10^6 cells/ml. […] The experimental system without the test samples described above was set as control. […] NO production, PGE2 production and macrophage growth are indicated as relative levels versus controls.

[4] = system: RAW264.7 cells; test: PGE2 production by macrophage RAW264.7, PGE2-EIA kit; format: cell-based, mouse; conditions: LPS + IFN-γ, 2 days, relative level versus control
Excerpt: (§2) RAW264.7 cells, a murine macrophage cell strain, were suspended in PRMI1640 medium supplied with 10% (v/v) fetal calf serum (hereinafter abbreviated as “FCS”) to give a cell suspension with a cell concentration of 1×10^6 cells/ml. […] The experimental system without the test samples described above was set as control. […] NO production, PGE2 production and macrophage growth are indicated as relative levels versus controls.

[5] = system: RAW264.7 cells; test: Macrophage growth, living cell count; format: cell-based, mouse; conditions: 2 days, relative level versus control
Excerpt: as §2

[6] = system: Mouse melanoma cell line B16; test: Living cell rate of B16 cells; conditions: mouse, 5 days
Procedure: as §1

Q: What does the source list for OC[C@H]1O[C@@H](Oc2ccc(O)cc2)[C@H](O)[C@@H](O)[C@@H]1O [AB, arbutin]?
A: inhibition at 31.3 µM ([1]; Rattus norvegicus, RBL-2H3, 31.3 μM, read-out: Inhibition intensity of degranulation): -30 to 30%; inhibition at 200 µM ([1]; Rattus norvegicus, RBL-2H3, 200 μM, read-out: Inhibition intensity of degranulation): -30 to 30%; inhibition at 500 µM ([1]; Rattus norvegicus, RBL-2H3, 500 μM, read-out: Inhibition intensity of degranulation): -30 to 30%; inhibition at 2000 µM ([1]; Rattus norvegicus, RBL-2H3, 2000 μM, read-out: Inhibition intensity of degranulation): -30 to 30%; concentration at which inhibiting activity on degranulation was exerted [1]: no inhibition activity on degranulation

Q: Which results are given for O=C1O[C@H]([C@@H](O)CO)C(O)=C1O[C@H]1O[C@H](CO)[C@@H](O)[C@H](O)[C@H]1O [Ascorbic acid 2-glucoside, ascorbic acid 2-glucoside]?
A: Amount of melanin (%) ([2]; 2 mM): 80%; Amount of melanin (%) ([2]; 4 mM): 68%; Amount of melanin (%) ([2]; 8 mM): 63%; inhibiting effect on melanin production in combinational use [2]: synergistically exert inhibiting effect on melanin production

Q: What does the source list for COc1ccc2c(c1)c(CC(=O)O)c(C)n2C(=O)c1ccc(Cl)cc1 [IN, indomethacin]?
A: NO production (%) ([3]; 0.16 μM): 86%; NO production (%) ([3]; 0.31 μM): 84%; NO production (%) ([3]; 0.63 μM): 81%; NO production (%) ([3]; 1.3 μM): 82%; NO production (%) ([3]; 2.5 μM): 80%; NO production (%) ([3]; 5.0 μM): 80%; NO production (%) ([3]; 10 μM): 78%; PGE2 production (%) ([4]; 0.16 μM): 4%; PGE2 production (%) ([4]; 0.31 μM): 4%; PGE2 production (%) ([4]; 0.63 μM): 4%; PGE2 production (%) ([4]; 1.3 μM): 3%; PGE2 production (%) ([4]; 2.5 μM): 1%; PGE2 production (%) ([4]; 5.0 μM): 2%; PGE2 production (%) ([4]; 10 μM): 1%; Macrophage growth (%) ([5]; 0.16 μM): 102%; Macrophage growth (%) ([5]; 0.31 μM): 104%; Macrophage growth (%) ([5]; 0.63 μM): 108%; Macrophage growth (%) ([5]; 1.3 μM): 117%; Macrophage growth (%) ([5]; 2.5 μM): 120%; Macrophage growth (%) ([5]; 5.0 μM): 122%; Macrophage growth (%) ([5]; 10 μM): 120%

Q: For O=c1cc(CO)occ1O [Koji acid, kojic acid], which “Amount of melanin (%)” value ([2]; 0.5 mM) is on record?
A: 79%

Q: What about the “Amount of melanin (%)” value ([2]; 1 mM) of the same molecule?
A: 71%

Q: What about the “Amount of melanin (%)” value ([2]; 2 mM) of the same molecule?
A: 59%

Q: What about the “inhibiting effect on melanin production in combinational use” value [2] of the same molecule?
A: synergistically exert inhibiting effect on melanin production

Q: And the “Living cell rate (%)” value ([6]; 0.5 mM)?
A: 93%

Q: And the “Living cell rate (%)” value ([6]; 1 mM)?
A: 86%

Q: And the “Living cell rate (%)” value ([6]; 2 mM)?
A: 73%

Q: With CS(=O)(=O)Nc1ccc([N+](=O)[O-])cc1OC1CCCCC1 [NS] as the molecule, how does the “NO production (%)” value ([3]; 0.16 μM) read?
A: 90%

Q: And the “NO production (%)” value ([3]; 0.31 μM)?
A: 89%

Q: And the “NO production (%)” value ([3]; 0.63 μM)?
A: 87%

Q: And the “NO production (%)” value ([3]; 1.3 μM)?
A: 85%

Q: And the “NO production (%)” value ([3]; 2.5 μM)?
A: 85%

Q: What about the “NO production (%)” value ([3]; 5.0 μM) of the same molecule?
A: 88%

Q: What about the “NO production (%)” value ([3]; 10 μM) of the same molecule?
A: 84%

Q: What about the “PGE2 production (%)” value ([4]; 0.16 μM) of the same molecule?
A: 4%

Q: And the “PGE2 production (%)” value ([4]; 0.31 μM)?
A: 4%

Q: What about the “PGE2 production (%)” value ([4]; 0.63 μM) of the same molecule?
A: 2%

Q: What about the “PGE2 production (%)” value ([4]; 1.3 μM) of the same molecule?
A: 1%

Q: What about the “PGE2 production (%)” value ([4]; 2.5 μM) of the same molecule?
A: 1%

Q: And the “PGE2 production (%)” value ([4]; 5.0 μM)?
A: 5%

Q: What about the “PGE2 production (%)” value ([4]; 10 μM) of the same molecule?
A: 2%

Q: What about the “Macrophage growth (%)” value ([5]; 0.16 μM) of the same molecule?
A: 95%

Q: And the “Macrophage growth (%)” value ([5]; 0.31 μM)?
A: 97%

Q: What about the “Macrophage growth (%)” value ([5]; 0.63 μM) of the same molecule?
A: 99%

Q: And the “Macrophage growth (%)” value ([5]; 1.3 μM)?
A: 102%

Q: And the “Macrophage growth (%)” value ([5]; 2.5 μM)?
A: 100%

Q: And the “Macrophage growth (%)” value ([5]; 5.0 μM)?
A: 105%

Q: And the “Macrophage growth (%)” value ([5]; 10 μM)?
A: 110%

Q: How did the inhibition at 1.5 µM ([1]; Rattus norvegicus, RBL-2H3, 1.5 μM, read-out: Inhibition intensity of degranulation) turn out when O=c1[nH]c2ccccc2n1CCCN1CCN(C(c2ccccc2)c2ccccc2)CC1 [OX, oxatomide] was run?
A: -30 to 30%

Q: What about the inhibition at 5 µM ([1]; Rattus norvegicus, RBL-2H3, 5 μM, read-out: Inhibition intensity of degranulation) of the same molecule?
A: -30 to 30%

Q: What about the inhibition at 23 µM ([1]; Rattus norvegicus, RBL-2H3, 23 μM, read-out: Inhibition intensity of degranulation) of the same molecule?
A: 30 to 50%

Q: And the inhibition at 94 µM ([1]; Rattus norvegicus, RBL-2H3, 94 μM, read-out: Inhibition intensity of degranulation)?
A: ≥ 50%

Q: What about the “concentration at which inhibiting activity on degranulation was exerted” value [1] of the same molecule?
A: ≥ 23 µM

Q: For OC[C@H]1O[C@H](O[C@H]2O[C@H](CO)[C@@H](O)[C@H](O)[C@H]2O)[C@H](O)[C@@H](O)[C@@H]1O [Trehalose, trehalose], which “Amount of melanin (%)” value ([2]; 20 mM) is on record?
A: 82%

Q: And the “Amount of melanin (%)” value ([2]; 40 mM)?
A: 75%

Q: And the “Amount of melanin (%)” value ([2]; 80 mM)?
A: 66%

Q: What about the “inhibiting effect on melanin production in combinational use” value [2] of the same molecule?
A: synergistically exert inhibiting effect on melanin production

— US20100324285A1, “ANTIINFLAMMATORY AGENT COMPRISING 2-AMINOPHENOL OR DERIVATIVE THEREOF AS ACTIVE INGREDIENT” (priority 2006, published 2010)
